In US10435361B2, “Kinase inhibitors” (Topivert Pharma Limited, priority 2013, dated 2019):

Each molecule was assayed on PBMCs (assay: LPS-induced TNFα/IL-8 release in PBMC cells). Conditions: Homo sapiens, assay (b), read-out: IC50 Values for Inhibition of Cytokine Release PBMCs IL-8.
Assay type: cell-based
Protocol: Peripheral blood mononuclear cells (PBMCs) from healthy subjects are separated from whole blood using a density gradient (Lymphoprep, Axis-Shield Healthcare). The PBMCs are seeded in 96 well plates and treated with compounds at the desired concentration for 2 hours before addition of 1 ng/mL LPS (Escherichia Coli 0111:B4 from Sigma Aldrich) for 24 hours under normal tissue culture conditions (37° C., 5% CO2). The supernatant is harvested for determination of IL-8 and TNFα concentrations by sandwich ELISA (Duo-set, R&D systems) and read on the fluorescence microplate reader (Varioskan® Flash, ThermoFisher Scientific).

**Q.** With `C#Cc1cc(Nc2nccc(Oc3ccc(NC(=O)Nc4cc(C(C)(C)C)cc(C(=O)NC)c4OC)c4ccccc34)n2)cc(C(=O)N[C@H](C)CN2CCOCC2)c1` [Example 61, (R)-5-(tert-Butyl)-3-(3-(4-((2-((3-ethynyl-5-((1-morpholinopropan-2-yl)carbamoyl)phenyl)amino)pyrimidin-4-yl)oxy)naphthalen-1-yl)ureido)-2-methoxy-N-methylbenzamide] as the molecule, how does the IC50 read?
**A.** Its IC50 is 2.1 nM.

**Q.** With `COc1cc(Nc2nccc(Oc3ccc(NC(=O)Nc4cc(C(C)(C)C)cc(NS(C)(=O)=O)c4OC)c4ccccc34)n2)cc(C(=O)NCCN2CCN(C)CC2)c1` [85(e), 3-[[4-[[4-[[5-tert-Butyl-3-(methanesulfonamido)-2-methoxyphenyl]-carbamoylamino]-1-naphthyl]oxy]pyrimidin-2-yl]amino]-5-methoxy-N-[2-(4-methylpiperazin-1-yl)ethyl]benzamide] as the molecule, how does the IC50 read?
**A.** The IC50 was 1.7 nM.

**Q.** With `COc1cc(Nc2cc(Oc3ccc(NC(=O)Nc4cc(C(C)(C)C)cc(NS(C)(=O)=O)c4OC)c4ccccc34)ccn2)cc(C(=O)NCCN2CC[S+]([O-])CC2)c1` [85(j), 3-[[4-[[4-[[5-tert-Butyl-3-(methanesulfonamido)-2-methoxyphenyl]-carbamoylamino]-1-naphthyl]oxy]-2-pyridyl]amino]-5-methoxy-N-[2-(1-oxo-1,4-thiazinan-4-yl)ethyl]benzamide] as the molecule, how does the IC50 read?
**A.** The IC50 was 2.1 nM.

**Q.** With `C#Cc1cc(Nc2nccc(Oc3ccc(NC(=O)Nc4cc(C(C)(C)C)cc(C(=O)NC)c4OC)c4ccccc34)n2)cc(C(=O)N[C@@H](C)CN2CCOCC2)c1` [Example 60, (S)-5-(tert-Butyl)-3-(3-(4-((2-((3-ethynyl-5-((1-morpholinopropan-2-yl)carbamoyl)phenyl)amino)pyrimidin-4-yl)oxy)naphthalen-1-yl)ureido)-2-methoxy-N-methylbenzamide] as the molecule, how does the IC50 read?
**A.** The IC50 was 2 nM.

**Q.** `COc1c(NC(=O)Nc2ccc(Oc3ccnc(Nc4ccccc4)c3)c(F)c2F)cc(C(C)(C)C)cc1C(=O)NC1COC1` [Example 82, 5-(tert-Butyl)-3-(3-(2,3-difluoro-4-((2-(phenylamino)pyridin-4-yl)oxy)phenyl)ureido)-2-methoxy-N-(oxetan-3-yl)benzamide] was tested. Which IC50 did it give?
**A.** Its IC50 is 6.6 nM.

**Q.** `COCCOCCOCCOCCNC(=O)c1cc(Nc2cc(Oc3ccc(NC(=O)Nc4cc(C(C)(C)C)cc(NS(C)(=O)=O)c4OC)c4ccccc34)ccn2)cc(OC)c1` [85(v), 3-[[4-[[4-[[5-tert-Butyl-3-(methanesulfonamido)-2-methoxyphenyl]-carbamoylamino]-1-naphthyl]oxy]-2-pyridyl]amino]-5-methoxy-N-[2-[2-[2-(2-methoxyethoxy)ethoxy]ethoxy]-ethyl]benzamide] was tested. Which IC50 did it give?
**A.** Its IC50 is 0.4 nM.

**Q.** Which IC50 does the source give for `COc1cc(Nc2cc(Oc3ccc(NC(=O)Nc4cc(C(C)(C)C)cc(NS(C)(=O)=O)c4OC)c4ccccc34)ccn2)cc(C(=O)NCCOCCOCCO)c1` [85(r), 3-[[4-[[4-[[5-tert-Butyl-3-(methanesulfonamido)-2-methoxyphenyl]-carbamoylamino]-1-naphthyl]oxy]-2-pyridyl]amino]-N-[2-[2-(2-hydroxyethoxy)ethoxy]-ethyl]-5-methoxy-benzamide] here?
**A.** The IC50 was 0.6 nM.

**Q.** Which IC50 does the source give for `COc1cc(Nc2cc(Oc3ccc(NC(=O)Nc4cc(C(C)(C)C)cc(NS(C)(=O)=O)c4OC)c4ccccc34)ccn2)cc(C(=O)NCCN2CCCN(C)CC2)c1` [85(p), 3-[[4-[[4-[[5-tert-Butyl-3-(methanesulfonamido)-2-methoxyphenyl]-carbamoylamino]-1-naphthyl]oxy]-2-pyridyl]amino]-5-methoxy-N-[2-(4-methyl-1,4-diazepan-1-yl)ethyl]benzamide] here?
**A.** The IC50 was 7.1 nM.

**Q.** For `COCCOCCOCCOc1cc(Nc2nccc(Oc3ccc(NC(=O)Nc4cc(C(C)(C)C)cc(Nc5ncccn5)c4OC)c4ccccc34)n2)cc(OC)c1` [Example 28, 1-(5-(tert-Butyl)-2-methoxy-3-(pyrimidin-2-ylamino)phenyl)-3-(4-((2-((3-methoxy-5-(2-(2-(2-methoxyethoxy)ethoxy)ethoxy)phenyl)amino)pyrimidin-4-yl)oxy)naphthalen-1-yl)urea], which IC50 is on record?
**A.** Its IC50 is 11.9 nM.

**Q.** Which IC50 does the source give for `COc1cc(Nc2cc(Oc3ccc(NC(=O)Nc4cc(C(C)(C)C)cc(NS(C)(=O)=O)c4OC)c4ccccc34)ccn2)cc(OCCOCCOCCO)c1` [84(e), 1-[5-tert-Butyl-3-(methanesulfonamido)-2-methoxy-phenyl]-3-[4-[[2-[3-[2-[2-(2-hydroxyethoxy)ethoxy]ethoxy]-5-methoxy-anilino]-4-pyridyl]oxy]-1-naphthyl]urea] here?
**A.** The IC50 was 1.3 nM.

**Q.** `COCCOCCOCCOc1cc(Nc2nccc(Oc3ccc(NC(=O)Nc4cc(C(C)(C)C)cc(C#N)c4OC)c4ccccc34)n2)cc(OC)c1` [Example 22, 1-(5-(tert-Butyl)-3-cyano-2-methoxyphenyl)-3-(4-((2-((3-methoxy-5-(2-(2-(2-methoxy-ethoxy)ethoxy)ethoxy)phenyl)amino)pyrimidin-4-yl)oxy)naphthalen-1-yl)urea] was tested. Which IC50 did it give?
**A.** The IC50 was 16.9 nM.

**Q.** How did the IC50 turn out when `COc1cc(Nc2nccc(Oc3ccc(NC(=O)Nc4cc(C(C)(C)C)cc(NS(C)(=O)=O)c4OC)c4ccccc34)n2)cc(OCCOCCC(=O)O)c1` [Example 31, 3-(2-(3-((4-((4-(3-(5-(tert-Butyl)-2-methoxy-3-(methylsulfonamido)phenyl)ureido)-naphthalen-1-yl)oxy)pyrimidin-2-yl)amino)-5-methoxyphenoxy)ethoxy)propanoic acid] was run?
**A.** Its IC50 is 7.2 nM.

**Q.** With `COCCOCCOCCOc1cc(Nc2nccc(Oc3ccc(NC(=O)Nc4cc(C(C)(C)C)cc(N)c4OC)c4ccccc34)n2)cc(OC)c1` [Example 25, 1-(3-Amino-5-(tert-butyl)-2-methoxyphenyl)-3-(4-((2-((3-methoxy-5-(2-(2-(2-methoxy-ethoxy)ethoxy)ethoxy)phenyl)amino)pyrimidin-4-yl)oxy)naphthalen-1-yl)urea] as the molecule, how does the IC50 read?
**A.** The IC50 was 7 nM.

**Q.** `COCCOCCOCCOc1cc(Nc2nccc(Oc3ccc(NC(=O)Nc4cc(C(C)(C)C)cc(C(=O)N(C)C)c4OC)c4ccccc34)n2)cc(OC)c1` [Example 19, 5-(tert-Butyl)-2-methoxy-3-(3-(4-((2-((3-methoxy-5-(2-(2-(2-methoxyethoxy)ethoxy)-ethoxy)phenyl)amino)pyrimidin-4-yl)oxy)naphthalen-1-yl)ureido)-N,N-dimethylbenzamide] was tested. Which IC50 did it give?
**A.** Its IC50 is 8.7 nM.

**Q.** Which IC50 does the source give for `COc1cc(Nc2cc(Oc3ccc(NC(=O)Nc4cc(C(C)(C)C)cc(NS(C)(=O)=O)c4OC)c4ccccc34)ccn2)cc(C(=O)NCCN2CCSCC2)c1` [85(i), 3-[[4-[[4-[[5-tert-Butyl-3-(methanesulfonamido)-2-methoxyphenyl]-carbamoylamino]-1-naphthyl]oxy]-2-pyridyl]amino]-5-methoxy-N-(2-thiomorpholinoethyl)-benzamide] here?
**A.** The IC50 was 1.5 nM.

**Q.** Which IC50 does the source give for `CCNC(=O)c1cc(C(C)(C)C)cc(NC(=O)Nc2ccc(Oc3ccnc(Nc4cc(OC)cc(OCCOCCOCCOC)c4)n3)c3ccccc23)c1OC` [Example 41] here?
**A.** Its IC50 is 4.5 nM.

**Q.** Which IC50 does the source give for `COc1c(NC(=O)Nc2ccc(Oc3ccnc(Nc4ccccc4)c3)c3ccccc23)cc(C(C)(C)C)cc1C(=O)NC1CCOCC1` [84(a), 3-[[4-[(2-Anilino-4-pyridyl)oxy]-1-naphthyl]carbamoylamino]-5-tert-butyl-2-methoxy-N-tetrahydropyran-4-yl-benzamide] here?
**A.** Its IC50 is 12.4 nM.

**Q.** With `COCCOCCOCCOc1cc(Nc2cc(Oc3ccc(NC(=O)Nc4cc(C(C)(C)C)cc(C(=O)NC5COC5)c4OC)c4ccccc34)ccn2)cc(OC)c1` [Example 77, 5-(tert-Butyl)-2-methoxy-3-(3-(4-((2-((3-methoxy-5-(2-(2-(2-methoxyethoxy)ethoxy)ethoxy)-phenyl)amino)pyridin-4-yl)oxy)naphthalen-1-yl)ureido)-N-(oxetan-3-yl)benzamide] as the molecule, how does the IC50 read?
**A.** The IC50 was 2 nM.
